According to patent US11484031B2, “Seed coating agent for preventing and treating wheat rot disease” (Institute of Plant Protection and Agro-products Safety, …, priority 2020, dated 2022):

Assays:
[1] = test system: Gaeumannomycesgraminisvar. tritici; assay: Mycelial growth assay (virulence test) of single agents and mixtures, Wadley method; type: cell-based; conditions: mycelial growth on medicated medium, 25° C.; ratio G:D = silothiamine:coumoxystrobin
Experimental: The bactericidal properties of silthiopham and coumoxystrobin are analyzed in detail. First, the EC50 ([…]) of the two single compounds of silthiostrobin and coumoxystrobin is determined. According to the EC50 of the two single drugs, the combination ratio of the two drugs is determined according to the Wadley method, and synergy coefficient SR value according to Wadley.
The test target is Gaeumannomycesgraminisvar. tritici, which causes wheat rot disease, but it is not limited to this. Silthiopham and coumoxystrobin are taken and prepared into a liquid plate about 15 ml per dish. At the edge of the pre-cultured colony, a 5 mm diameter hyphae block is prepared with a sterile puncher, and then transferred to different medium plates and cultured at 25° C. The test adopts the mycelial growth assay method, and prepares medicated medium according to different treatments. At the edge of the pre-cultured colony, a 5 mm diameter hyphae block is prepared with a sterile puncher, and then transferred to medium plates with different drug contents. […]
According to the Wadley method to evaluate the interaction of the mixture, the calculation formula is as follows: EC50(theoretical value)=(a+b)/(a/EC50a+b/EC50b), SR=EC50(theoretical value)/EC50(actual value). wherein, a and b are the content ratio of each component in the mixture, and the effect of mixing is analyzed by SR value. […]

[2] = test system: wheat seeds; assay: Seed soaking test: emergence rate and seedling stage of wheat seeds; type: in vivo, wheat variety "An Nong 0711"; conditions: seed soaking seed:drug solution=1:2, 20 minutes, after 40 days, compound sodium nitrophenolate at 0.05%, salicylic acid at 0.01%
Experimental: Seed initiator composition 1 with a measured content of 0.06% (compound sodium nitrophenolate 0.05%, salicylic acid 0.01%, the balance water) was diluted 10 times to form seed initiator composition 2 with a content of 0.006% (compound sodium nitrophenolate 0.005%, salicylic acid 0.001%, the balance water). The seed initiator composition 2 was treated with 0.05% compound sodium nitrophenolate, 0.01% salicylic acid and distilled water as a control. The effect on […] seed vigor was determined according to the above compositions. The experimental wheat variety was “An Nong 0711”, and the experiment was carried out in the experimental base of Anhui Academy of Agricultural Sciences. Seed soaking is carried out according to the weight ratio of seed:drug solution=1:2. After soaking for 20 minutes, sowing in the shade and drying in the shade, the seedling emergence rate, plant height, root length and fresh weight are calculated after 40 days.

CCCCc1c(C)c2ccc(OCc3ccccc3/C(=C\OC)C(=O)OC)cc2oc1=O [Coumoxystrobin(D), (E)-2-(2-(3-n-butyl-4methyl-coumarin-7-yloxy)methylphenyl)-3-methoxy Methyl acrylate]
EC50 [1]: 2.3127 ppm

O=C(O)c1ccccc1O [Salicylic acid]
Fresh weight (10 plants, g) ([2]; 10 plants): 1.28 ± 0.17 g | Emergence rate [2]: 83.8% | Plant height [2]: 10.5 ± 1.7 cm | Root length [2]: 4.8 ± 1.3 cm

C=CCNC(=O)c1c([Si](C)(C)C)sc(C)c1C [Silothiamine(G), N-allyl-4,5-dimethyl-2-(trimethylsilyl) thiophene-3-carboxamide]
EC50 [1]: 0.6893 ppm
